Experiments:
[1] = Weight loss in diet-induced obese mice: chronic dosing; type: in vivo, mouse; details: for body weight: 0.3 nmol/kg s.c. every day
Description: (§1) Compound 1 was evaluated for its ability to reduce foot intake and body weight and improve glucose homeostasis on repeat dosing in male DIO C57Bl/6 mice over a period of 8 days. Male DIO C57BL/6N mice (20 weeks of age, 14 weeks on high fat diet) were obtained from Taconic Laboratory. […] Animals were acclimated to the facility for at least one week prior to the start of the experiment.
(§2) The day prior to dosing, mice were grouped based on individual body weights. At 3:00-4:00 pm for each of the next 8 days, animals and food intake were weighed. […] After 8 days, mice are fasted for 5 hours and then given a 2 g/kg bolus of glucose orally at t=0. At t=0, 30, 60, 90, and 120 minutes post glucose challenge blood glucose is measured and at t=0, 30, and 90 minutes blood in drawn to measure plasma insulin. […] All data are presented as the mean±SEM (FIG. 7, FIG. 8, and Tables 8-11).

[2] = Single dose, food intake and body weight in Sprague-Dawley rats; type: in vivo, rat; set-up: body weight change: unit not given here; details: single dose 0.3 nmol/kg s.c. (Dulaglutide); for absolute body weight: in g (unit assumed)
Description: Compound 1 was evaluated for its ability to reduce foot intake and body weight in Sprague-Dawley after a single dose. The animals were obtained from Charles River Labs (Wilmington, Mass.) at 200-225 g body weight and used within one week of delivery. They were housed one per cage on alpha dry bedding and a plastic tube for enrichment in a temperature-controlled room with 12-hour light/dark cycle. […] Animal weights were taken and recorded for each rat prior to dosing.
Body weights and food intake were measured 1, 2 and 3 days after dosing and the percentages of weight loss and reduction in food intake were calculated. […] All data are presented as the mean±SEM (Tables 18-20).

[3] = OGTT after 8 days of treatment in DIO mice; type: in vivo, mouse; details: 0.3 nmol/kg every day
Description: as §1, §2

Dulaglutide
fed Blood Glucose ([1]; 0.3 nmol/kg every day, after 8 days of treatment): 114 ± 13 mg/dL | body weight ([1]; Day 0): 45.9 ± 0.6 g | body weight ([1]; Day 1): 44.1 ± 0.6 g | body weight ([1]; Day 2): 42.2 ± 0.6 g | body weight ([1]; Day 3): 40.6 ± 0.6 g | body weight ([1]; Day 4): 39.3 ± 0.6 g | body weight ([1]; Day 5): 38.1 ± 0.7 g | body weight ([1]; Day 6): 37.1 ± 0.8 g | body weight ([1]; Day 7): 36.4 ± 1.0 g | body weight ([1]; Day 8): 36.5 ± 1.1 g | body weight ([1]; Day −1): 46.3 ± 0.6 g | body weight change ([2]; Day 0): 0.0 ± 0.0 | daily food intake ([2]; Day 0): 26.6 ± 0.8 | absolute body weight ([2]; Day 0): 270.3 ± 3.0 | body weight change ([2]; Day 1): 10.6 ± 1.6 | daily food intake ([2]; Day 1): 27.3 ± 1.2 | absolute body weight ([2]; Day 1): 280.8 ± 4.2 | body weight change ([2]; Day 2): 22.5 ± 0.8 | daily food intake ([2]; Day 2): 30.0 ± 0.7 | absolute body weight ([2]; Day 2): 292.47 ± 3.6 | body weight change ([2]; Day 3): 28.7 ± 0.6 | daily food intake ([2]; Day 3): 30.1 ± 0.7 | absolute body weight ([2]; Day 3): 299.0 ± 3.3 | body weight change ([2]; Day −1): −6.3 ± 0.8 | absolute body weight ([2]; Day −1): 264.0 ± 3.1 | Total Food Consumption ([2]; over three days): 87.4 ± 2.0 | blood glucose (mg/dL) during OGTT ([3]; 0 min after glucose challenge): 76 ± 9 mg/dL | insulin (ng/mL) during OGTT ([3]; 0 min after glucose challenge): 0.6 ± 0.1 ng/mL | blood glucose (mg/dL) during OGTT ([3]; 30 min after glucose challenge): 151 ± 14 mg/dL | insulin (ng/mL) during OGTT ([3]; 30 min after glucose challenge): 1.7 ± 0.2 ng/mL | blood glucose (mg/dL) during OGTT ([3]; 60 min after glucose challenge): 174 ± 17 mg/dL | blood glucose (mg/dL) during OGTT ([3]; 90 min after glucose challenge): 104 ± 10 mg/dL | insulin (ng/mL) during OGTT ([3]; 90 min after glucose challenge): 0.7 ± 0.2 ng/mL | blood glucose (mg/dL) during OGTT ([3]; 120 min after glucose challenge): 119 ± 9 mg/dL | glucose Delta AUC (mg/dl/120 min) ([3]; OGTT): 6668 ± 1846 mg/dl/120 min | glucose Total AUC (mg/dl/120 min) ([3]; OGTT): 15758 ± 1054 mg/dl/120 min
